{
  "source": "ChEMBL document CHEMBL2321855",
  "about": "“Synthesis, molecular modeling and evaluation of novel N'-2-(4-benzylpiperidin-/piperazin-1-yl)acylhydrazone derivatives as dual inhibitors for cholinesterases and Aβ aggregation” (Bioorg Med Chem Lett, 2013)",
  "key": {"[1]": {"target": "Amyloid-beta precursor protein (Homo sapiens) (UniProt P05067)", "sequence (P05067 whole entry)": "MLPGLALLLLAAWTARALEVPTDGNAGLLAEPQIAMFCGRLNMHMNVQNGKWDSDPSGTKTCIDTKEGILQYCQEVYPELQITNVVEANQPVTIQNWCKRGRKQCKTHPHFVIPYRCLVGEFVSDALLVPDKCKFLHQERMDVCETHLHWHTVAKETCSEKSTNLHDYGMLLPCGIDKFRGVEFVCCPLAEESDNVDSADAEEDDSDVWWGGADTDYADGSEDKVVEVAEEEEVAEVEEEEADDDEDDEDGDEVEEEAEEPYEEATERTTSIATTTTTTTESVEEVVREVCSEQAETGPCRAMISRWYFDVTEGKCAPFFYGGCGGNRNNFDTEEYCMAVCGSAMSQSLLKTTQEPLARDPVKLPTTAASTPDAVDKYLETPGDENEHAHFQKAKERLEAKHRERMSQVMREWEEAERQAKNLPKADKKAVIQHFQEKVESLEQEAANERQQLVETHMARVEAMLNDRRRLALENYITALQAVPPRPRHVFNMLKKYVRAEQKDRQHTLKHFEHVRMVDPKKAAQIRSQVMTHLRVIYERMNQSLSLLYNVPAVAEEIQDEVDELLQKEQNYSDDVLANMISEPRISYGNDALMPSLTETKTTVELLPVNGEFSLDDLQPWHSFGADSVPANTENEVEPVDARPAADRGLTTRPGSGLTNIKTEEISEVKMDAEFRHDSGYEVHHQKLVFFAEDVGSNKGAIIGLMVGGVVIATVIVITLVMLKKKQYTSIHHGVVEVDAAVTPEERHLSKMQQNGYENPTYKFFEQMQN", "assay": "Inhibition of amyloid beta (1 to 40_1 to 42) (unknown origin) aggregation at 100 uM by thioflavin-T fluorescence method relative to rifampicin"}, "[2]": {"target": "Amyloid-beta precursor protein (Homo sapiens) (UniProt P05067)", "assay": "Inhibition of amyloid beta (1 to 40) (unknown origin) aggregation at 100 uM by thioflavin-T fluorescence method relative to rifampicin"}, "[3]": {"target": "Amyloid-beta precursor protein (Homo sapiens) (UniProt P05067)", "assay": "Inhibition of amyloid beta (1 to 42) (unknown origin) aggregation at 100 uM by thioflavin-T fluorescence method relative to rifampicin"}, "Acetylcholinesterase": {"target": "Acetylcholinesterase (Homo sapiens, UniProt P22303)", "sequence (P22303 whole entry)": "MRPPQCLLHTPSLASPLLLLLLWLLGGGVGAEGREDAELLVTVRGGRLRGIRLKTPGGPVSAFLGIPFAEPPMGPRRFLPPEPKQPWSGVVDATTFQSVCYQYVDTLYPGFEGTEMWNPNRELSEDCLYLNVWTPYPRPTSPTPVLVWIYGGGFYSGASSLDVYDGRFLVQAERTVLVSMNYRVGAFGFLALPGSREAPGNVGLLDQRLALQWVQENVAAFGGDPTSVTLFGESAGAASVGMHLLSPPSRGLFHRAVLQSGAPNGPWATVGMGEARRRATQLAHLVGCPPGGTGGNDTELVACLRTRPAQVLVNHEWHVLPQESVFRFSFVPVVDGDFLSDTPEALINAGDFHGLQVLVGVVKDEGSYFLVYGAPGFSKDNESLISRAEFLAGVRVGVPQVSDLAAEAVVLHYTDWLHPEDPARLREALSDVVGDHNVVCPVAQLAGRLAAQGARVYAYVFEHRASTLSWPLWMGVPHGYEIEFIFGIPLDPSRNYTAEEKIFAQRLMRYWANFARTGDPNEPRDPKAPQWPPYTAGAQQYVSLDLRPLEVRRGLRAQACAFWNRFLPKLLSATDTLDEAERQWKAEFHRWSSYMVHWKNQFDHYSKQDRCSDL", "assay": "Inhibition of human recombinant AChE measured for 1 min by Ellman's method"}, "Cholinesterase [4]": {"target": "T1, Cholinesterase (Equus caballus, UniProt P81908)", "T1 sequence (P81908 whole entry)": "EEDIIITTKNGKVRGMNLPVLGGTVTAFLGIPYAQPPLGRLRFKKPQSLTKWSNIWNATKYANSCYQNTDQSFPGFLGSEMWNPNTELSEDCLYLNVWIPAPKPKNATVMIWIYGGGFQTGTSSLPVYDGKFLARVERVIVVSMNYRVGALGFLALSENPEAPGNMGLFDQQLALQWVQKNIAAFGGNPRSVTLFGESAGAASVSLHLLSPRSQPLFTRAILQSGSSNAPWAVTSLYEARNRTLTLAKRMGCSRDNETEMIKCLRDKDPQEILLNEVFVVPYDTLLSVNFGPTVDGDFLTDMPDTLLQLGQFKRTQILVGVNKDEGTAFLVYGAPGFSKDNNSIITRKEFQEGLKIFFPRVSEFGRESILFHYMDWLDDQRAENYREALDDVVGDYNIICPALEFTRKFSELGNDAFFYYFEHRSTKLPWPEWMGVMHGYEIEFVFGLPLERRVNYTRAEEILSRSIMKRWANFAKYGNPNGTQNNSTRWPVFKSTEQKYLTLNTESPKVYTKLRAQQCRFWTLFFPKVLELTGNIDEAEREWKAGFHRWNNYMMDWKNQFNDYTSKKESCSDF", "assay": "Inhibition of equine BuChE measured for 1 min by Ellman's method"}, "Cholinesterase [5]": {"target": "T1, Cholinesterase", "assay": "Competitive inhibition of equine BuChE by Lineweaver-Burk plot analysis"}, "Cholinesterase [6]": {"target": "T1, Cholinesterase", "assay": "Mixed type inhibition of equine BuChE by Lineweaver-Burk plot analysis"}},
  "note": "pIC50, pKi: −log10 of the molar value.",
  "data": [
    {"smiles": "COc1ccc(/C=N/NC(=O)CN2CCC(Cc3ccccc3)CC2)cc1OC", "values": [
      {"measurement": "inhibition", "setting": "[1]", "result": 69, "unit": "%"},
      {"measurement": "inhibition", "setting": "[2]", "result": 69, "unit": "%"},
      {"measurement": "inhibition", "setting": "[3]", "result": 69, "unit": "%"},
      {"measurement": "pIC50", "setting": "Acetylcholinesterase", "result": 4.20},
      {"measurement": "pIC50", "setting": "Cholinesterase [4]", "result": 4.26}
    ]},
    {"smiles": "CCOc1ccc(/C=N/NC(=O)CN2CCC(Cc3ccccc3)CC2)cc1", "values": [
      {"measurement": "inhibition", "setting": "[1]", "result": 69, "unit": "%"},
      {"measurement": "inhibition", "setting": "[2]", "result": 69, "unit": "%"},
      {"measurement": "pKi", "setting": "Cholinesterase [5]", "result": 4.50},
      {"measurement": "inhibition", "setting": "[3]", "result": 69, "unit": "%"},
      {"measurement": "pIC50", "setting": "Cholinesterase [4]", "result": 4.17}
    ]},
    {"smiles": "COc1ccc(/C=N/NC(=O)CN2CCN(Cc3ccccc3)CC2)cc1", "values": [
      {"measurement": "inhibition", "setting": "[1]", "result": 69, "unit": "%"},
      {"measurement": "inhibition", "setting": "[2]", "result": 69, "unit": "%"},
      {"measurement": "inhibition", "setting": "[3]", "result": 69, "unit": "%"},
      {"measurement": "pIC50", "setting": "Acetylcholinesterase", "result": 4.05},
      {"measurement": "pIC50", "setting": "Cholinesterase [4]", "result": 4.05}
    ]},
    {"smiles": "COc1ccc(/C=N/NC(=O)CN2CCC(Cc3ccccc3)CC2)cc1", "values": [
      {"measurement": "pKi", "setting": "Cholinesterase [6]", "result": 4.52},
      {"measurement": "inhibition", "setting": "[1]", "result": 69, "unit": "%"},
      {"measurement": "inhibition", "setting": "[2]", "result": 69, "unit": "%"},
      {"measurement": "inhibition", "setting": "[3]", "result": 69, "unit": "%"},
      {"measurement": "pIC50", "setting": "Cholinesterase [4]", "result": 4.31}
    ]},
    {"smiles": "COc1ccc(/C=N/NC(=O)CN2CCN(Cc3ccccc3)CC2)cc1OC", "values": [
      {"measurement": "inhibition", "setting": "[1]", "result": 69, "unit": "%"},
      {"measurement": "inhibition", "setting": "[2]", "result": 69, "unit": "%"},
      {"measurement": "inhibition", "setting": "[3]", "result": 69, "unit": "%"},
      {"measurement": "pIC50", "setting": "Acetylcholinesterase", "result": 4.09},
      {"measurement": "pIC50", "setting": "Cholinesterase [4]", "result": 4.14}
    ]},
    {"smiles": "CCOc1ccc(/C=N/NC(=O)CN2CCN(Cc3ccccc3)CC2)cc1", "values": [
      {"measurement": "inhibition", "setting": "[1]", "result": 69, "unit": "%"},
      {"measurement": "inhibition", "setting": "[2]", "result": 69, "unit": "%"},
      {"measurement": "inhibition", "setting": "[3]", "result": 69, "unit": "%"},
      {"measurement": "pIC50", "setting": "Acetylcholinesterase", "result": 4.09},
      {"measurement": "pIC50", "setting": "Cholinesterase [4]", "result": 4.01}
    ]}
  ]
}
